Assay results taken from paper PMC4853435, “A cell cycle kinase with tandem sensory PAS domains integrates cell fate cues” (Nature Communications, 2016).

Key:
CckA 70–378 (ΔCA-ΔRD) = biological target: T1, CckA 70–378 (ΔCA-ΔRD) (Caulobacter vibrioides, UniProt A0A0H3C8Q4); assay: SPR (Biacore T200, CckA variant amine-coupled to CM5 chip); format: binding; settings: 50 mM HEPES pH 8, 200 mM KCl, 5 mM MgCl2, 25 °C
T1 construct: residues 70-378 (PAS-A, PAS-B, DHp), His-tagged, E. coli, Ni-NTA; immobilised on SPR chip
T1 sequence (A0A0H3C8Q4 70-378): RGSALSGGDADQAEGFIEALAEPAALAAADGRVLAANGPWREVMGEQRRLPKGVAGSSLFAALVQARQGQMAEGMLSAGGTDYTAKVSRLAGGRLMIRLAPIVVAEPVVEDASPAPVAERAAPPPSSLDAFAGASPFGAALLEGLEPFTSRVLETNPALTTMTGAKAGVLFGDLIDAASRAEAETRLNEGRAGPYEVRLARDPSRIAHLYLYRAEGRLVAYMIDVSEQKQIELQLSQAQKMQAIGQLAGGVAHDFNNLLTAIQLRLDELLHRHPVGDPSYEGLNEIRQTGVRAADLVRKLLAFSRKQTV

[1] = biological target: T2, CckA 197–544 (ΔPAS-A-ΔRD) (Caulobacter vibrioides, UniProt A0A0H3C8Q4); assay: as above; format: binding; settings: 50 mM HEPES pH 8, 200 mM KCl, 5 mM MgCl2, 25 °C
T2 construct: residues 197-544 (PAS-B, DHp, CA), His-tagged, E. coli, Ni-NTA; immobilised on SPR chip
T2 sequence (A0A0H3C8Q4 197-544): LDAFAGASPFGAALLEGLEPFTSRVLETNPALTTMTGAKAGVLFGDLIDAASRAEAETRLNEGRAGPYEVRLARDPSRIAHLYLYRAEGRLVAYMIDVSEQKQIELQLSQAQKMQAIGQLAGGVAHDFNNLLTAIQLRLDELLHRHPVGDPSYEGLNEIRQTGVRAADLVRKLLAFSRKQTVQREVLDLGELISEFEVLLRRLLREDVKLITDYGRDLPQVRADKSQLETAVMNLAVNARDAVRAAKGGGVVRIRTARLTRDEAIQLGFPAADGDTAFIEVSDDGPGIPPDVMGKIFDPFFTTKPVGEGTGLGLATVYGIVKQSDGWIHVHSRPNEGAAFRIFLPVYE

CckA 197–691 (ΔPAS-A) = biological target: T3, CckA 197–691 (ΔPAS-A) (Caulobacter vibrioides, UniProt A0A0H3C8Q4); assay: autophosphorylation with [gamma-32P]ATP, nitrocellulose capture, phosphorimaging; format: biochemical
T3 construct: residues 197-691 (PAS-B, DHp, CA, RD), His-tagged, E. coli, Ni-NTA
T3 sequence (A0A0H3C8Q4 197-691): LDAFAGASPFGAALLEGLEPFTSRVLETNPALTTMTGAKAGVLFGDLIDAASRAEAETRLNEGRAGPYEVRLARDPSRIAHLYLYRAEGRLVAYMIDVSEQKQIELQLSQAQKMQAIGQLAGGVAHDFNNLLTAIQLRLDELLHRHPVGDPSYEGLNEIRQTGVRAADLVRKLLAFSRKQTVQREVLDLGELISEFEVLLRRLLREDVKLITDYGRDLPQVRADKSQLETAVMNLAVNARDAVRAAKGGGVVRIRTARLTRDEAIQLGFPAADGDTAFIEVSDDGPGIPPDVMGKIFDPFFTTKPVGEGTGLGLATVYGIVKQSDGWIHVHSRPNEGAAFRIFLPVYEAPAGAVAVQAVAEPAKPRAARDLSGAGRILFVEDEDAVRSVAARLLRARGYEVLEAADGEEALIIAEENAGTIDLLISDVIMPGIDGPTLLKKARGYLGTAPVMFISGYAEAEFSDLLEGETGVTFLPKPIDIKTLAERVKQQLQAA

CckA 70–691 (WT) = biological target: T4, CckA 70–691 (WT) (Caulobacter vibrioides, UniProt A0A0H3C8Q4); assay: as above; format: biochemical
T4 construct: cytosolic region 70-691 (PAS-A, PAS-B, DHp, CA, RD), transmembrane helices removed, N-terminal His6 tag, E. coli, Ni-NTA
T4 sequence (A0A0H3C8Q4 70-691): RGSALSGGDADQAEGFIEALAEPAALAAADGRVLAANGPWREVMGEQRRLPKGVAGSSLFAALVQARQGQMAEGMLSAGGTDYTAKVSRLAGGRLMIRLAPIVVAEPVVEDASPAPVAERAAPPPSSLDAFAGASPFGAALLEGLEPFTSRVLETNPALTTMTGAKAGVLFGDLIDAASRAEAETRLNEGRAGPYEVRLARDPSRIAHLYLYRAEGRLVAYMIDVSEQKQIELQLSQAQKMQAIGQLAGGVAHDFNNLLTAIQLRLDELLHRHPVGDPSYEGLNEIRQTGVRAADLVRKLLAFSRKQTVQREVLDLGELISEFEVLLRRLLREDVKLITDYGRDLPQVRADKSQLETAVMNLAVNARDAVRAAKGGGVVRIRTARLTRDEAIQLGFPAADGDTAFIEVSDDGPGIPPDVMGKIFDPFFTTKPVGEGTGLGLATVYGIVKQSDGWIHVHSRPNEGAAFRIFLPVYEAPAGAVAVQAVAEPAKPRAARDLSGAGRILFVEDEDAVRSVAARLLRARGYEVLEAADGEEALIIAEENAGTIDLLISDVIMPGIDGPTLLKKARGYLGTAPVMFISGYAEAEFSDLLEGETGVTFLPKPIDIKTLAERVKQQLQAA

[2] = biological target: T5, CckA 70–295 (ΔDHp-ΔCA-ΔRD) (Caulobacter vibrioides, UniProt A0A0H3C8Q4); assay: SPR (Biacore T200, CckA variant amine-coupled to CM5 chip); format: binding; settings: 50 mM HEPES pH 8, 200 mM KCl, 5 mM MgCl2, 25 °C
T5 construct: residues 70-295 (PAS-A, PAS-B), pJAB41 in pET28b(+), His-tagged, E. coli, Ni-NTA; immobilised on SPR chip
T5 sequence (A0A0H3C8Q4 70-295): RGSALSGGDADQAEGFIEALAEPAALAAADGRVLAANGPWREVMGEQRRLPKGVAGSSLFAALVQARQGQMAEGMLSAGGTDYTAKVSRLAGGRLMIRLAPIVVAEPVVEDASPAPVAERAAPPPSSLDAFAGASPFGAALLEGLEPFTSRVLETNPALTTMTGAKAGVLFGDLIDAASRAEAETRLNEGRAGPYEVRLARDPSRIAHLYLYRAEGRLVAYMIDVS

CckA 70–544 (ΔRD) = biological target: T6, CckA 70–544 (ΔRD) (Caulobacter vibrioides, UniProt A0A0H3C8Q4); assay: as above; format: binding; settings: 50 mM HEPES pH 8, 200 mM KCl, 5 mM MgCl2, 25 °C
T6 construct: residues 70-544 (PAS-A, PAS-B, DHp, CA), receiver domain removed, His-tagged, E. coli, Ni-NTA; immobilised on SPR chip
T6 sequence (A0A0H3C8Q4 70-544): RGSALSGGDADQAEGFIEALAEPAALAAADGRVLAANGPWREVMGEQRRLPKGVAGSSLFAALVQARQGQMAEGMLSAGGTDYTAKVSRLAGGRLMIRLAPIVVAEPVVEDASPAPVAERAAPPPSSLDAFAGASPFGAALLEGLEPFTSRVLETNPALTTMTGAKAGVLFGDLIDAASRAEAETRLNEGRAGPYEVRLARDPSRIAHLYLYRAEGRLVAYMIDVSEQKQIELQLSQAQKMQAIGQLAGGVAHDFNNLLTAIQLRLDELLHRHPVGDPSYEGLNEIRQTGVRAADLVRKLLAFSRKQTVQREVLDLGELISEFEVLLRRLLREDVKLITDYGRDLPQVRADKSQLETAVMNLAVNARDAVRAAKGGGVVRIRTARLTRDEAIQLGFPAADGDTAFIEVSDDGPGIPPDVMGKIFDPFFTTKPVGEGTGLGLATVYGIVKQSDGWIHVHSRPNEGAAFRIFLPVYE

SMILES: Nc1nc2c(ncn2[C@@H]2O[C@@H]3COP(=O)(O)O[C@H]4[C@@H](O)[C@H](n5cnc6c(=O)[nH]c(N)nc65)O[C@@H]4COP(=O)(O)O[C@H]3[C@H]2O)c(=O)[nH]1 [c-di-GMP]
- SPR (Biacore T200, CckA variant amine-coupled to CM5 chip) (CckA 70–378 (ΔCA-ΔRD)): removal of the ATP-binding CA domain resulted in a minor reduction in c-di-GMP binding
- SPR (Biacore T200, CckA variant amine-coupled to CM5 chip) [1]: Each construct still displayed concentration dependence in response to c-di-GMP
- IC50 (CckA 197–691 (ΔPAS-A)): 22 µM
- IC50 (CckA 70–691 (WT)): 27 µM
- SPR (Biacore T200, CckA variant amine-coupled to CM5 chip) [2]: Each construct still displayed concentration dependence in response to c-di-GMP
- SPR (Biacore T200, CckA variant amine-coupled to CM5 chip) (CckA 70–544 (ΔRD)): The concentration-dependent response we observed demonstrates that c-di-GMP directly binds CckA
